Results: ChEMBL document CHEMBL2074174, “Directional trans-epithelial transport of organic anions in porcine LLC-PK1 cells that co-express human OATP1B1 (OATP-C) and MRP2” (Biochem Pharmacol, 2005)

target: Canalicular multispecific organic anion transporter 1/Solute carrier organic anion transporter family member 1B1 (Homo sapiens, UniProt Q92887+Q9Y6L6); experiment: TP_TRANSPORTER: Transepithelial Transport (basal to apical) in OATP1B1/MRP2 double transfected LLC-PK1 cell; type: functional, cell-based; conditions: pig

C[C@]12CC[C@@H]3c4ccc(O)cc4CC[C@H]3[C@@H]1CC[C@@H]2O[C@@H]1O[C@H](C(=O)O)[C@@H](O)[C@H](O)[C@H]1O [ESTRADIOL 17B GLUCURONIDE] was tested. Which Activity did it give?
Its Activity is “substrate [(+)]”.

For C[C@]12CC[C@@H]3c4ccc(OS(=O)(=O)O)cc4CC[C@H]3[C@@H]1CCC2=O [ESTRONE SULFURIC ACID], which Activity is on record?
The Activity was “substrate [(+)]”.

Which Activity does the source give for C[C@]12CC[C@H](OS(=O)(=O)O)CC1=CC[C@@H]1[C@@H]2CC[C@]2(C)C(=O)CC[C@@H]12 [PRASTERONE SULFURIC ACID] here?
The Activity was “substrate [(+)]”.
